From US20150087616A1, “PREBIOTIC FORMULATIONS AND METHODS OF USE” (RITTER PHARMACEUTICALS, INC., priority 2011, published 2015) come the findings set out here.

The experiment concerns Bifidobacterium species. Nature of the experiment: Comparative growth of Bifidobacterium species in scratch MRS with 2% carbohydrate. The following applies: five (four) Bifidobacterium species; scratch MRS + 2% carbohydrate. It counts as cell-based. The protocol: The objective of the study was to determine the ability of various Bifidobacterium species and strains to grow on galactooligosaccharides.
The growth of Lactobacillus and Bifidobacterium strains was evaluated in scratch MRS (Table 16) supplemented with 2% of a carbohydrate solution. The carbohydrates used in the experiments were: Glucose—Fisher; Lactose—Fisher; GOS1—95% GOS purity from Inalco SPA—Provided by Ritter Pharmaceuticals; GOS2—90% GOS purity from GTC—provided by Ritter Pharmaceuticals.
Carbohydrate stock solutions were filter sterilized and then added to either a scratch MRS formulation (Table 16), or a semisynthetic medium (Table 17).
Lactobacillus and Bifidobacterium cultures were propagated in MRS broth overnight, and then transferred once through the test medium. For growth experiments, cultures were inoculated into the MRS scratch medium containing one of the 4 carbohydrates to be examined Growth was monitored either: **automatically, using a FLUOStar OPTIMA microtiter plate reader to monitor the change in absorbance (A600) as a function of the time. The strains were incubated at 37 C aerobically for these experiments; or ** manually, using a standard spectrophotometer to monitor the change in OD600 nm over time, in 5 ml liquid culture tubes. These cultures were incubated anaerobically at 37° C. in a COY anaerobic chamber, flushed with anaerobic gas. […]

With `OC[C@H]1O[C@@H](O[C@H]2[C@H](O)[C@@H](O)C(O)O[C@@H]2CO)[C@H](O)[C@@H](O)[C@H]1O` (stereo partly shown) [lactose, Lactose], the “comparative growth on four carbohydrate sources (glucose, lactose, GOS1, GOS2)” value is given as “none of the Bifidobacterium strains used in these experiments grew”.
